Tests used:
PDE4B = biological target: T1, PDE4B (Homo sapiens, UniProt Q07343); assay: PDE4 IMAP Assay; assay type: biochemical; conditions: 2 h; Activity at 10 μM; catalytic domain of PDE4B; read-out: PDE IMAP Assay
T1 construct: hexa-histidine (His6) (N); made in house
Text: Compounds may be screened for functional potency in in vitro biochemical assays for their ability to inhibit the activity of phosphodiesterase (PDE) enzymes. A commercial PDE assay, Molecular Device's PDE IMAP assay, was modified and utilized to measure the inhibitory activity of compounds on PDE isoforms. The IMAP technology is based on the high affinity binding of phosphate by immobilized metal (MIII) coordination complexes on nanoparticles. This IMAP “binding reagent” complexes with phosphate groups on the nucleotide monophosphates generated in the reaction. Such binding causes a change in the rate of the molecular motion of the nucleotide, and results in an increase in the fluorescence polarization value observed for the fluorescent label attached to the substrate. PDE inhibitors prevent the generation of nucleotide monophosphates and the subsequent increase in polarization value observed for the fluorescent label attached to the substrate. The catalytic domain of PDE4B was fused to an amino-terminus hex-histadine affinity tag and purified. PDE4B enzyme was incubated with compounds for 10 minutes. Fluorescently labeled cyclic AMP substrates were then added to the PDE enzyme mix and incubated for 2 hours at room temperature. IMAP binding reagent was then added to the enzyme mix, incubated for 10-30 minutes and fluorescent polarization of the fluorescently labeled substrate was read either with the Perkin Elmer Viewlux or Molecular Devices Acquest or Analyst. Roflumilast and Rolipram are the positive controls used in the assay.

PDE4 = PDE4 Cellular CNG Assay; assay type: cell-based; conditions: Activity at 10 μM; HEK293 cells stably expressing the CNG channel
Text: Compounds may be screened for functional potency in in vitro cellular assays for their ability to inhibit the activity of phosphodiesterase (PDE) enzymes. A commercial membrane potential assay, Molecular Device's membrane potential assay kit, was modified and utilized to measure the inhibitory activity of compounds on PDE isoforms in living cells. The cellular assay utilizes genetically engineered cyclic nucleotide-gated (CNG) channels as cyclic-AMP (cAMP) sensors. On binding cAMP these ion channels open, allowing the flow of cations across the plasma membrane. CNG channel activity can be monitored by measuring Ca^2+ influx in cell populations. The influx of Ca causes a change in membrane potential that is measured by voltage sensitive dyes. PDE inhibitors prevent the degradation of cAMP that is generated by adenylyl cyclases that are activated upon stimulation of G protein-coupled receptors (GPCR) linked to the cAMP pathway. In brief, Molecular Device's membrane potential dye was added to HEK293 cells stably expressing the CNG channel and incubated for 2 hours at room temperature. Test compounds were then added to the cells and incubated for 15 minutes. A GPCR agonist was then added to the cells to stimulate the cAMP pathway and incubated for 45 minutes. Fluorescent measurements were then conducted with either the Molecular Devices Acquest or Analyst. PDE inhibitors will inhibit the degradation of cAMP and cause an increase in fluorescent signal. Roflumilast and Rolipram are the positive controls used in the assay.

T1 sequence (Q07343 330-659 limits assumed, species assumed): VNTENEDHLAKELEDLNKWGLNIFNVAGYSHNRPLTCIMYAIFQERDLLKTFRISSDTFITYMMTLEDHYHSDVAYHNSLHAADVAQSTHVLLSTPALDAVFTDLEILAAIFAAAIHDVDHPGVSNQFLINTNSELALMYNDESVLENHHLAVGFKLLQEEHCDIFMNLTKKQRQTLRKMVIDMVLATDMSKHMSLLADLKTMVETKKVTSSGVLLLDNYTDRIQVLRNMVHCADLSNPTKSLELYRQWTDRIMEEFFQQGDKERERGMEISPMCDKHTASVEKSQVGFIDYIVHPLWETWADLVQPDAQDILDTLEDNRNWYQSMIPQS

SMILES	inhibition at 10 µM (PDE4B) [%]	Cellular CNG Assay (PDE4)
NC(=O)CSc1nc2sc3c(c2c(=O)n1C1CCCC1)CCCC3 [Example 1, 2-(3-Cyclopentyl-4-oxo-3,4,5,6,7,8-hexahydro-benzo[4]thieno[2,3-d]pyrimidin-2-ylsulfanyl)-acetamide]	≥ 50	+ (+indicates Activity ≧ 50% at 10 μM)
CCNc1nc(NCC)n2c(SCc3nc4ccccc4c(=O)[nH]3)nnc2n1 [Example 2, 2-((5,7-Bis(ethylamino)-[1,2,4]triazolo[4,3-a][1,3,5]-triazin-3-ylthio)methyl)quinazolin-4(3H)-one]	≥ 50	+ (+indicates Activity ≧ 50% at 10 μM)
COc1ccc(CN(Cc2ccncc2)C(=O)c2ccc3[nH]c(C)c(C)c3c2)cc1OC [Example 3, N-(3,4-dimethoxybenzyl)-2,3-dimethyl-N-(pyridin-4-ylmethyl)-1H-indole-5-carboxamide]	≥ 50	+ (+indicates Activity ≧ 50% at 10 μM)
COc1ccc(CN(C(=O)c2cccc3ccccc23)C2CCCC2)cc1OC(C)C [Example 4, N-cyclopentyl-N-(3-isopropoxy-4-methoxybenzyl)-1-naphthamide]	≥ 50	+ (+indicates Activity ≧ 50% at 10 μM)
COc1ccc(CN(C)C(=O)c2cnn(-c3nccc(-c4cccs4)n3)c2C)cc1OC [Example 5, N-(3,4-dimethoxybenzyl)-N,5-dimethyl-1-(4-(thiophen-2-yl)pyrimidin-2-yl)-1H-pyrazole-4-carboxamide]	≥ 50	+ (+indicates Activity ≧ 50% at 10 μM)
CCc1cccc(C)c1Nc1cc(NCCc2ccc(OC)c(OC)c2)ncn1 [Example 6, N4-(3,4-dimethoxyphenethyl)-N6-(2-ethyl-6-methylphenyl)pyrimidine-4,6-diamine]	≥ 50	+ (+indicates Activity ≧ 50% at 10 μM)
Cc1ccc(S(=O)(=O)c2nnn3c2nc(NC(C)C)c2sccc23)cc1 [Example 7, N-isopropyl-3-tosylthieno[2,3-e][1,2,3]triazolo[1,5-a]pyrimidin-5-amine]	≥ 50	− (−indicates Activity < 50% at 10 μM)
CC(C)c1nc2sc3c(NCCCO)ncnc3c2c2c1COC(C)(C)C2 [Example 8, 3-(5-Isopropyl-2,2-dimethyl-1,4-dihydro-2H-3-oxa-7-thia-6,9,11-triazabenzo[c]fluoren-8-ylamino)-propan-1-ol]	≥ 50	+ (+indicates Activity ≧ 50% at 10 μM)
N#Cc1sc2nc(C3CC3)cc(-c3ccc(F)cc3)c2c1N [Example 9, 3-Amino-6-cyclopropyl-4-(4-fluorophenyl)thieno[2,3-b]pyridine-2-carbonitrile]	≥ 50	+ (+indicates Activity ≧ 50% at 10 μM)
COc1ccc(S(=O)(=O)N2CC(C)(C)Oc3ccc(NC(=O)c4cccnc4SC)cc32)cc1OC [Example 10, N-(4-(3,4-dimethoxyphenylsulfonyl)-2,2-dimethyl-3,4-dihydro-2H-benzo[b][1,4]oxazin-6-yl)-2-(methylthio)nicotinamide]	≥ 50	+ (+indicates Activity ≧ 50% at 10 μM)
COc1ccc(S(=O)(=O)N2CC(C)(C)Oc3ccc(NC(=O)c4ccccc4OC)cc32)cc1OC [Example 11, N-(4-(3,4-dimethoxyphenylsulfonyl)-2,2-dimethyl-3,4-dihydro-2H-benzo[b][1,4]oxazin-6-yl)-2-methoxybenzamide]	≥ 50	+ (+indicates Activity ≧ 50% at 10 μM)
COc1ccc(NC(=O)c2ccccc2C(F)(F)F)cc1OC1CCCC1 [Example 12, N-(3-(cyclopentyloxy)-4-methoxyphenyl)-2-(trifluoromethyl)benzamide]	≥ 50	+ (+indicates Activity ≧ 50% at 10 μM)
CSc1nc(NC2CCCCC2)c2sccc2n1 [Example 13, N-cyclohexyl-2-(methylthio)thieno[3,2-d]pyrimidin-4-amine]	≥ 50	+ (+indicates Activity ≧ 50% at 10 μM)
CCOc1ccccc1C(=O)Nc1c2c(nn1-c1cccc(Cl)c1)CS(=O)(=O)C2 [Example 14]	≥ 50	− (−indicates Activity < 50% at 10 μM)
CC(C)n1c(=O)c(=O)n(Cc2cccc(C(F)(F)F)c2)c2cc(S(C)(=O)=O)ccc21 [Example 15, 1-Isopropyl-6-(methylsulfonyl)-4-(3-(trifluoromethyl)benzyl)quinoxaline-2,3(1H,4H)-dione]	≥ 50	+ (+indicates Activity ≧ 50% at 10 μM)
COC(=O)c1ccc(Cn2c(=O)c(=O)n(C(C)C)c3ccc(C(F)(F)F)cc32)cc1 [Example 16, Methyl 4-((4-isopropyl-2,3-dioxo-7-(trifluoromethyl)-3,4-dihydroquinoxalin-1(2H)-yl)methyl)benzoate]	≥ 50	+ (+indicates Activity ≧ 50% at 10 μM)
CCOC(=O)N1CCN(C(=O)c2cnn3c(C(F)(F)F)cc(-c4ccc(OC)c(OC)c4)nc23)CC1 [Example 17, Ethyl 4-(5-(3,4-dimethoxyphenyl)-7-(trifluoromethyl)pyrazolo[1,5-a]pyrimidine-3-carbonyl)piperazine-1-carboxylate]	≥ 50	+ (+indicates Activity ≧ 50% at 10 μM)
COc1ccc(-c2cc(C(F)(F)F)n3ncc(C(=O)Nc4cccc(CCC#N)c4)c3n2)cc1OC [Example 18, N-(3-(2-cyanoethyl)phenyl)-5-(3,4-dimethoxyphenyl)-7-(trifluoromethyl)pyrazolo[1,5-a]pyrimidine-3-carboxamide]	≥ 50	+ (+indicates Activity ≧ 50% at 10 μM)
O=C(c1cccc(N2CCNC2=O)c1)N(CCC1=CCCCC1)Cc1cc2cc3c(cc2nc1N1CCOCC1)OCO3 [Example 19, N-(2-cyclohexenylethyl)-N-((6-morpholino-[1,3]dioxolo[4,5-g]quinolin-7-yl)methyl)-3-(2-oxoimidazolidin-1-yl)benzamide]	≥ 50	+ (+indicates Activity ≧ 50% at 10 μM)
CCOc1ncccc1C(=O)Nc1ccc(S(=O)(=O)Nc2nccs2)cc1 [Example 20, 2-Ethoxy-N-(4-(N-thiazol-2-ylsulfamoyl)phenyl)nicotinamide]	≥ 50	+ (+indicates Activity ≧ 50% at 10 μM)
O=c1n(Cc2ccncc2)nc2c3ccccc3nc(C3CC3)n12 [Example 21, 5-Cyclopropyl-2-(pyridin-4-ylmethyl)-[1,2,4]triazolo[4,3-c]quinazolin-3(2H)-one]	≥ 50	+ (+indicates Activity ≧ 50% at 10 μM)
COc1ccc(-c2cnnn2-c2ccc(NC(=O)c3c(F)cccc3F)cc2)cc1OC [Example 22, N-(4-(5-(3,4-dimethoxyphenyl)-1H-1,2,3-triazol-1-yl)phenyl)-2,6-difluorobenzamide]	≥ 50	+ (+indicates Activity ≧ 50% at 10 μM)
COc1ccc(-c2cnnn2-c2ccc(NC(=O)c3ccc4c(c3)OCO4)cc2)cc1OC [Example 23, N-(4-(5-(3,4-dimethoxyphenyl)-1H-1,2,3-triazol-1-yl)phenyl)benzo[d][1,3]dioxole-5-carboxamide]	≥ 50	+ (+indicates Activity ≧ 50% at 10 μM)
COc1ccc(-c2cn3ccnc3c(NCc3ccccc3)n2)cc1OC [Example 24, N-benzyl-6-(3,4-dimethoxyphenyl)imidazo[1,2-a]pyrazin-8-amine]	≥ 50	–
Cc1c(Cc2ccccc2)c(N2CCNCC2)n2c(nc3ccccc32)c1C#N [Example 25, 2-Benzyl-3-methyl-1-piperazin-1-yl-benzo[4,5]imidazo[2-a]pyridine-4-carbonitrile]	≥ 50	− (−indicates Activity < 50% at 10 μM)
CC(C)CCn1c(=O)c2ccccc2n2c(CN3CCN(c4ncccn4)CC3)nnc12 [Example 26, 4-Isopentyl-1-((4-(pyrimidin-2-yl)piperazin-1-yl)methyl)-[1,2,4]triazolo[4,3-a]quinazolin-5(4H)-one]	≥ 50	+ (+indicates Activity ≧ 50% at 10 μM)

From patent US20090275586A1, “HETEROCYCLIC INHIBITORS OF PDE4” (KALYPSYS, INC., priority 2006, published 2009)
